According to patent US10633338B2, “Binding Function 3 (BF3) site compounds as therapeutics and methods for their use” (THE UNIVERSITY OF BRITISH COLUMBIA, priority 2014, dated 2020):
Like-named read-outs stand apart in the source and are kept apart here.

Tests used:
PSA = experiment: Prostate Surface Antigen (PSA) assay, PSA excreted into the media; assay type: cell-based, human; conditions: same plates as eGFP assay; for IC50: Homo sapiens, 72 h
Description: The evaluation of PSA excreted into the media was performed in parallel to the eGFP assay using the same plates (see above description). After the cells were incubated for 3 days 150 μl of the media was taken from each well, and added to 150 μl of PBS.

androgen receptor (AR) = target: T1, androgen receptor (AR) (Homo sapiens, UniProt P10275, T878A); experiment: eGFP cellular AR transcription assay; assay type: cell-based
T1 construct: stably transfected eGFP-expressing LNCaP human prostate cancer cells (LN-ARR2PB-eGFP) containing an androgen responsive probasin-derived promoter; endogenous in cells; host or cells: LNCaP (LN-ARR2PB-eGFP)
T1 sequence (P10275 1-920 T878A): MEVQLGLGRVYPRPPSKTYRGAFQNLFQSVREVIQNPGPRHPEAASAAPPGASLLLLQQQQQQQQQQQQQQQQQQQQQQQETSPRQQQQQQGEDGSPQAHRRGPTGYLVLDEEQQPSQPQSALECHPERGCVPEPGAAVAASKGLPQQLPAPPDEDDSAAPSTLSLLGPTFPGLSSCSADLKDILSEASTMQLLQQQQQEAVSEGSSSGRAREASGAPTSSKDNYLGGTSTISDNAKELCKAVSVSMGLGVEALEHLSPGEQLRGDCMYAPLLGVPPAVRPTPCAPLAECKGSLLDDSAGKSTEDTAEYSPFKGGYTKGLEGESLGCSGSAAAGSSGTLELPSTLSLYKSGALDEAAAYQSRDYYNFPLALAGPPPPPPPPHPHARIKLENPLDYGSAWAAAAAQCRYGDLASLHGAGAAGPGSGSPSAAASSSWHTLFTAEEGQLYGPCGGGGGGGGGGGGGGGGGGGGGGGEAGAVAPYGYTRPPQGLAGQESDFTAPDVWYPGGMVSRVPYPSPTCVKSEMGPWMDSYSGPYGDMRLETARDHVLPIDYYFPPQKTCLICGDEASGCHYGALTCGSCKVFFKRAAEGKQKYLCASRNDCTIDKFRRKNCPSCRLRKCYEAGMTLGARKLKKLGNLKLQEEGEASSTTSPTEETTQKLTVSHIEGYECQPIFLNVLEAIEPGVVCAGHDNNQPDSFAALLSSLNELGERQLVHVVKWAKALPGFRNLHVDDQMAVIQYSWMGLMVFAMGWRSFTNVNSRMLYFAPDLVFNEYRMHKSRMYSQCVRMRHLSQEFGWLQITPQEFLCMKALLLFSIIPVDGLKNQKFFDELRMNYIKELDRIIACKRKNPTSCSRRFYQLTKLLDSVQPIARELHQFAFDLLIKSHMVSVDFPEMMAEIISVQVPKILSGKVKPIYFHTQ
How it was run: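 AR transcriptional activity is read as eGFP expression from a probasin-derived androgen-responsive promoter. Compound titrated 0-100 μM in the presence of 0.1 nM R1881; 35,000 cells/well.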

[1] = media after 3 days, read-out: IC50 (PSA)
[2] = LN-ARR2PB-eGFP LNCaP cells, 0.1 nM R1881, 3 days, 0-100 μM compound, read-out: IC50 (eGFP)
[3] = PSA excreted into media, 3 days incubation, read-out: PSA IC50
[4] = LN-ARR2PBeGFP LNCaP cells, 0.1 nM R1881, 3 days incubation, read-out: eGFP IC50
[5] = PSA excreted into media, 3 days incubation
[6] = LN-ARR2PBeGFP LNCaP cells, 0.1 nM R1881, 3 days incubation
[7] = LN-ARR2PB-eGFP LNCaP cells, 0.1 nM R1881, 3 days, 0-100 μM compound

Row | SMILES | IC50 (PSA; [3]) [nM] | IC50 (androgen receptor (AR); [4]) [nM] | PSA IC50 (PSA; [5]) | eGFP IC50 (androgen receptor (AR); [6]) | other results
1 | Fc1ccc2c(-c3ccc4ccccc4n3)c[nH]c2c1 [13 576] | – | – | – | – | IC50 (PSA; [1]): 48 nM; IC50 (androgen receptor (AR); [2]): 144 nM
2 | c1ccc2nc(-c3c[nH]c4ccccc34)ncc2c1 [Compound 13587] | 530 | 760 | – | – | –
3 | COc1cccc2c(-c3cc(C)c4ccccc4n3)c[nH]c12 [13 554] | – | – | – | – | IC50 (PSA; [1]): 670 nM; IC50 (androgen receptor (AR); [2]): 600 nM
4 | Cc1c(F)ccc2c(-c3ccc4cccc(F)c4n3)c[nH]c12 [Compound 13635] | – | – | Inactive | Inactive | –
5 | Cc1cccc2ccn(-c3ccc4ccc(F)cc4n3)c12 [Compound 13648] | – | – | Inactive | Inactive | –
6 | FC(F)(F)c1ccccc1-c1c[nH]c2ccccc12 [13 745] | – | – | – | – | IC50 (PSA; [1]): 950 nM; IC50 (androgen receptor (AR); [2]): 1010 nM
7 | Clc1cc(Cl)cc(/N=C/c2c[nH]c3ccccc23)c1 [Compound 13304] | 4540 | 7300 | – | – | –
8 | Cc1cccc2c(-c3ccc4c(Br)ccc(Br)c4n3)c[nH]c12 [13 679] | – | – | – | – | IC50 (PSA) (PSA; media after 3 days): IC50 (PSA) = Inactive; IC50 (eGFP) (androgen receptor (AR); [7]): IC50 (eGFP) = Inactive
9 | Cc1c(F)ccc2c(-c3ccc4cccc(Cl)c4n3)c[nH]c12 [Compound 13665] | 210 | 270 | – | – | –
10 | Fc1cc(F)c2[nH]ccc2c1 [Compound 13723] | – | – | Inactive | Inactive | –
11 | Fc1ccc2cc[nH]c2c1Cl [Compound 13725] | – | – | Inactive | Inactive | –
12 | c1ccc2ncc(-c3c[nH]c4ccncc34)cc2c1 [13 637] | – | – | – | – | IC50 (PSA) (PSA; media after 3 days): IC50 (PSA) = Inactive; IC50 (eGFP) (androgen receptor (AR); [7]): IC50 (eGFP) = Inactive
13 | Cc1cccc2c(-c3nc4ccccc4cc3O)c[nH]c12 [Compound 13661] | – | – | Inactive | Inactive | –
14 | c1ccc2nc(-c3n[nH]c4ccccc34)ccc2c1 [Compound 13663] | – | – | Inactive | Inactive | –
15 | Fc1ccc2ccc(-c3c[nH]c4c(F)c(F)c(F)cc34)nc2c1 [Compound 13772] | 172 | 200 | – | – | –
16 | Cc1cc(Cl)c2[nH]ccc2c1 [Compound 13724] | – | – | Inactive | Inactive | –
17 | c1ccc2c(c1)NC(c1c[nH]c3ccccc13)C21CCCCC1 (stereo not drawn) [Compound 13534] | 1250 | 800 | – | – | –
18 | c1ccc2cc(-c3c[nH]c4ncccc34)ccc2c1 [13 676] | – | – | – | – | IC50 (PSA; [1]): 34 nM; IC50 (androgen receptor (AR); [2]): 53 nM
19 | Cc1cccc2c(-c3ccc4scnc4c3)c[nH]c12 [Compound 13758] | – | – | Inactive | Inactive | –
20 | Cc1cc(-c2c[nH]c3c(C)c(F)ccc23)nc2ccccc12 [Compound 13659] | – | – | Inactive | Inactive | –
21 | Cc1cc(F)cc2c(-c3cc(C#N)c4ccccc4n3)c[nH]c12 [Compound 13657] | – | – | Inactive | Inactive | –
22 | Fc1cc(F)c2[nH]cc(-c3ccc4c(Cl)cccc4n3)c2c1 [Compound 13672] | – | – | Inactive | Inactive | –

The next lines start with results.

Row | IC50 (PSA; [3]) [nM] | IC50 (androgen receptor (AR); [4]) [nM] | SMILES | PSA IC50 (PSA; [5]) | eGFP IC50 (androgen receptor (AR); [6]) | other results
23 | 140 | 210 | O=[N+]([O-])c1cccc2c(-c3ccc4ccccc4c3)c[nH]c12 [Compound 13702] | – | – | –
24 | 1250 | 1900 | O=Nc1c(-c2c[nH]c3ccccc23)[nH]c2ccccc12 [Compound 13167] | – | – | –
25 | 6650 | 4900 | CC1(C)c2cc(Br)ccc2NC1c1cn(S(=O)(=O)C[C@]23CC[C@@H](CC2=O)C3(C)C)c2ccccc12 (stereo partly drawn) [Compound 13524] | – | – | –
26 | 1740 | 11500 | Fc1c(Cl)ccc2c(-c3ccc4ccccc4n3)c[nH]c12 [Compound 13613] | – | – | –
27 | 1200 | 1100 | Cc1ccc(/N=N/c2c[nH]c3ccccc23)c(C)c1 [Compound 13423] | – | – | –
28 | 90 | 200 | CNC(=O)c1cccc2nc(-c3c[nH]c4c(C)c(F)c(F)cc34)ccc12 [Compound 13771] | – | – | –
29 | 1560 | 1300 | Brc1ccc2c(-c3ccc4ccccc4n3)c[nH]c2c1 [Compound 13568] | – | – | –
30 | 806 | 700 | CC1(C)C(c2c[nH]c3ncccc23)=Nc2ccccc21 [Compound 13537] | – | – | –
